Key:
[1] = molecular target: T1, heteromeric channels containing rMiRP1 (Homo sapiens, UniProt Q12809); assay: Ca2+ treated as blocking ion, rMiRP1/HERG channels in oocytes, protocols 1 and 2; format: cell-based, rat; conditions: rMiRP1/HERG vs HERG
T1 construct: expressed in transfected cells; host or cells: Xenopus laevis oocytes, cRNA injection
Method: (§1) Raw data are shown without leak correction. […] All experiments were performed at 22° C.

HERG channels [2] = molecular target: T2, HERG channels (Homo sapiens, UniProt Q12809); assay: Ca2+ treated as blocking ion, HERG channels in oocytes, protocols 1 and 2; format: cell-based; design: expressed in transfected cells; host or cells: CHO cells; conditions: −100 mV, read-out: apparent equilibrium inhibition constant (Ki)
Method: as §1

Native IKr channels = conditions: ferret cardiac myocytes; Liu et al., 1996; read-out: Ki, E-4031, native IKr channels; cited from earlier work
HERG channels [3] = molecular target: T2, HERG channels; assay: cell-based
Method: (§2) Ionic conditions. Activation of channels formed only with HERG or containing both rMiRP1 and HERG subunits was assessed at various Ca^2+ concentrations by protocols 1 and 2. […] Initial characterizations were thus performed in a “low Ca^2+/high K^+” bath solution (in mM): 95 KCl, 5 NaCl, 1 MgCl2, 0.3 CaCl2 and 10 HEPES, pH 7.6 with NaOH. Other studies use solutions based on levels of ionized species found in human plasma (in mM): 4 KCl, 95 NaCl, 0.75 MgCl2, 1 CaCl2 and 10 HEPES, pH 7.6 with NaOH. For K^+ titrations in FIG. 4, NaCl and KCl were isotonically substituted. For cell-attached patches, pipette solution was (in mM): 100 KCl, 1 MgCl2, 0.3 CaCl2, 10 HEPES, pH 7.5 with KOH. For whole cell, pipettes contained (in mM): 100 KCl, 1 MgCl2, 10 HEPES, 2 EGTA, pH 7.5 with KOH.

[4] = molecular target: wild type hMiRP1/HERG channels (Homo sapiens, UniProt Q12809); assay: Drug blockade of wild type hMiRP1/HERG channels expressed in CHO cells
Method: as §2

Q9E-hMiRP1 channels = Q9E-hMiRP1 channels (Homo sapiens, UniProt Q12809); assay: Clarithromycin blockade of Q9E-hMiRP1/HERG channels in CHO cells; conditions: for Ki: clarithromycin blockade
Method: Wild type hMiRP1/HERG channels and those formed with Q9E, M54T, I57T or T8A-hMiRP1 were compared by transient expression in CHO cells using 1 mM Ca^2+, 4 mM KCl solution.

[Ca+2] [Ca^2+]
apparent Ki relative to HERG channels, fold lower [1]: ~3 fold
Ki (HERG channels [2]): 290 ± 20 µM

Cc1cccc(CCN2CCC(C(=O)c3ccc(NS(C)(=O)=O)cc3)CC2)n1 [E-4031]
Ki (Native IKr channels): 0.0103 µM

CC[C@H]1OC(=O)[C@H](C)[C@@H](O[C@H]2C[C@@](C)(OC)[C@@H](O)[C@H](C)O2)[C@H](C)[C@@H](O[C@@H]2O[C@H](C)C[C@H](N(C)C)[C@H]2O)[C@](C)(OC)C[C@@H](C)C(=O)[C@H](C)[C@@H](O)[C@]1(C)O [clarithromycin]
IC50 (HERG channels [3]): 750 ± 310 µM
IC50 [4]: 720 ± 180 µM
Ki [4]: 590 ± 100 µM
shift of V1/2 to more positive potentials ([4]; human, pH 7.6): 10 mV
sensitivity to the drug relative to wild type channels (Q9E-hMiRP1 channels): 3 fold
shift of V1/2 to more positive potentials (Q9E-hMiRP1 channels): 10 mV
Ki (Q9E-hMiRP1 channels; CHO cells, 1 mM Ca2+, 4 mM KCl): 240 ± 40 µM
Ki (Q9E-hMiRP1 channels; bath K+ reduced to 1 mM, n=6 cells): 200 ± 70 µM

Source: US6864364B1, “MinK-related genes, formation of potassium channels and association with cardiac arrhythmia” (priority 1999, dated 2005)
